Patent publication US20260158102A1, “CYCLIC PEPTIDE DERIVATIVE COMPOSITION FOR TREATING OR PREVENTING NEUROPATHIC PAIN AND/OR INFLAMMATORY PAIN” (DKS Co. Ltd., priority 2022, published 2026)

How the values were obtained:
[1] = system: STZ-induced diabetic rats; experiment: von Frey test in rat STZ-induced diabetes model; type: in vivo; details: for 50% withdrawal threshold by von Frey test: mean ± SE, n=10
Protocol: The activity of the compound of the present disclosure was evaluated according to the following procedure.
(§1) Compound 9 (50 mg/mL) was diluted with water for injection to obtain a 1 mg/mL administration specimen. For the specimens to be administered at 0.1 mg/mL and 0.01 mg/mL, the specimen to be administered at 1 mg/mL was diluted stepwise with water for injection. Each administration specimen was divided into PP disposable tubes every day and stored in a storehouse (freezer: MDF-MU339H-PJ, PHC Corporation) under the condition of freezing (−30° C. to −20° C., measured value: −26.4 to −24.5° C.). Preparation was performed on the day before the start of administration.
(§2) Water for injection was added to and dissolved in Pregabalin taken out from the capsule to obtain 2 mg/mL. It was prepared before use.
(§3) • Animal species: rat (SPF) • Strain: Crl: CD (SD) • Date of animal acquisition, gender, age in weeks, number of animals acquired, and weight range after 1 day of acquisition • First and second courses: Apr. 6, 2022, male, 7 weeks old, 35 animals, 217 to 237 g • Third and fourth courses: Apr. 13, 2022, male, 7 weeks old, 35 animals, 216 to 235 g • Source: […].
Among the animals having a 50% withdrawal threshold of 8 g or more in the von Frey test measured during the preliminary breeding period, two animals from young animals with animal numbers were assigned to non-diabetes-induced animals, and the remaining animals were assigned to diabetes-induced animals.
Among the diabetes-induced animals, animals having a blood glucose level of 300 mg/dL or less were excluded from the grouping subjects, and were grouped using a computer program (IBUKI, Nihon Bioresearch Center, Inc.) so that the body weight and the average blood glucose level of each group were approximately equal. That is, the animals for the first and second courses and the third and fourth courses were grouped into one non-diabetes animal for Group 1, and 5 […] animals for Groups 2 to 6. Note that the grouping was performed so that there were 4 examples in Group 1 and 10 examples in each of Groups 2 to 6.
• Administration method: Using a syringe (Terumo Corporation) equipped with a 25 G winged injection needle (Terumo Corporation), tail vein administration was performed. Note that a 0.75 mmol/L CAB solution was administered to a non-diabetes-induced control group.
(§4) • Dose volume: calculated at 2 mL/kg based on the body weight on the day of administration. • Number of times of administration: once • Day of administration: 7 days before the day of starting administration of the test substance.
• Administration method: Using a syringe (Terumo Corporation) equipped with a 25 G winged injection needle (Terumo Corporation), tail vein administration was performed. Note that physiological saline was administered to the non-diabetes control group and the diabetes control group.
(§5) • Dose volume: calculated at 1 mL/kg based on the body weight on the day of administration. • Number of times of administration: 9 times • Interval of administration: once every 3 days (evaluation was performed on the day after administration) • Day of starting administration: day 8 of STZ administration (day of STZ administration is counted as day 1).
• Administration method: Using a polypropylene disposable syringe (Terumo Corporation) equipped with a metal oral zonde for a rat (Fuchigami kikai Ltd.), forced oral administration was performed.
• Dose volume: calculated at 10 mL/kg based on the body weight on the day of administration. • Number of times of administration: Administration was performed once on the day of evaluation of neuropathic pain, twice in total, and on the other days of administration, a vehicle for a control substance (water for injection) was orally administered. […]

[2] = Body weight measurement in rat STZ-induced diabetes model; type: in vivo; details: 20 mg/kg oral, mean ± SE, in g (unit assumed)
Protocol: as §1, §2, §3, §4, §5
• Dose volume: calculated at 10 mL/kg based on the body weight on the day of administration. • Number of times of administration: Administration was performed once on the day of evaluation of neuropathic pain, twice in total, and on the other days of administration, a vehicle for a control substance (water for injection) was orally administered.
• Measurement was performed every day after the day of STZ administration.
The mean and standard error of each group were calculated for the 50% withdrawal threshold, body weight, and blood glucose level.
The body weight was an integer.
No significant difference test of body weight and blood glucose levels was performed.

Q: With `CC(C)C[C@H](CN)CC(=O)O` [Pregabalin, reference compound] as the compound, how does the “50% withdrawal threshold by von Frey test” value ([1]; 20 mg/kg oral group, Pre: before STZ administration) read?
A: Its value is 12.7 ± 0.7 g.

Q: What about the “50% withdrawal threshold by von Frey test” value ([1]; 20 mg/kg oral, 3 hours after administration, day 14 of STZ administration) of the same compound?
A: Its value is 14.5 ± 0.5 g.

Q: And the “50% withdrawal threshold by von Frey test” value ([1]; 20 mg/kg oral, 3 hours after administration, day 28 of STZ administration)?
A: The value was 14.1 ± 0.7 g.

Q: And the “change in the 50% withdrawal threshold (von Frey test)” value ([1]; 20 mg/kg oral, both 14 days and 28 days after STZ administration, as compared with the diabetes control group)?
A: Its value is “significant increase”.

Q: What about the Body weight ([2]; day 1 of STZ administration) of the same compound?
A: The Body weight was 293 ± 5.

Q: What about the Body weight ([2]; day 2 of STZ administration) of the same compound?
A: The Body weight was 278 ± 5.

Q: What about the Body weight ([2]; day 3 of STZ administration) of the same compound?
A: Its Body weight is 272 ± 5.

Q: And the Body weight ([2]; day 4 of STZ administration)?
A: The Body weight was 275 ± 4.

Q: What about the Body weight ([2]; day 5 of STZ administration) of the same compound?
A: The Body weight was 280 ± 4.

Q: And the Body weight ([2]; day 6 of STZ administration)?
A: The Body weight was 282 ± 4.

Q: And the Body weight ([2]; day 7 of STZ administration)?
A: The Body weight was 288 ± 4.

Q: And the Body weight ([2]; day 8 of STZ administration)?
A: The Body weight was 285 ± 4.

Q: What about the Body weight ([2]; day 9 of STZ administration) of the same compound?
A: Its Body weight is 289 ± 4.

Q: What about the Body weight ([2]; day 10 of STZ administration) of the same compound?
A: Its Body weight is 291 ± 5.

Q: What about the Body weight ([2]; day 11 of STZ administration) of the same compound?
A: Its Body weight is 297 ± 4.

Q: And the Body weight ([2]; day 12 of STZ administration)?
A: The Body weight was 297 ± 5.

Q: What about the Body weight ([2]; day 13 of STZ administration) of the same compound?
A: Its Body weight is 298 ± 5.

Q: What about the Body weight ([2]; day 14 of STZ administration) of the same compound?
A: The Body weight was 302 ± 6.

Q: And the Body weight ([2]; day 15 of STZ administration)?
A: The Body weight was 297 ± 4.

Q: And the Body weight ([2]; day 16 of STZ administration)?
A: Its Body weight is 300 ± 5.

Q: And the Body weight ([2]; day 17 of STZ administration)?
A: Its Body weight is 304 ± 5.

Q: And the Body weight ([2]; day 18 of STZ administration)?
A: Its Body weight is 303 ± 5.

Q: What about the Body weight ([2]; day 19 of STZ administration) of the same compound?
A: Its Body weight is 302 ± 6.

Q: And the Body weight ([2]; day 20 of STZ administration)?
A: Its Body weight is 308 ± 5.

Q: And the Body weight ([2]; day 21 of STZ administration)?
A: Its Body weight is 305 ± 6.

Q: What about the Body weight ([2]; day 22 of STZ administration) of the same compound?
A: The Body weight was 309 ± 5.

Q: And the Body weight ([2]; day 23 of STZ administration)?
A: Its Body weight is 307 ± 7.

Q: And the Body weight ([2]; day 24 of STZ administration)?
A: The Body weight was 305 ± 7.

Q: And the Body weight ([2]; day 25 of STZ administration)?
A: Its Body weight is 307 ± 6.

Q: And the Body weight ([2]; day 26 of STZ administration)?
A: Its Body weight is 309 ± 6.

Q: And the Body weight ([2]; day 27 of STZ administration)?
A: The Body weight was 304 ± 7.

Q: And the Body weight ([2]; day 28 of STZ administration)?
A: The Body weight was 307 ± 7.

Q: What about the Body weight ([2]; day 29 of STZ administration) of the same compound?
A: Its Body weight is 302 ± 7.

Q: What about the Body weight ([2]; day 30 of STZ administration) of the same compound?
A: The Body weight was 302 ± 7.

Q: What about the Body weight ([2]; day 31 of STZ administration) of the same compound?
A: The Body weight was 304 ± 8.

Q: And the Body weight ([2]; day 32 of STZ administration)?
A: Its Body weight is 305 ± 8.

Q: What about the Body weight ([2]; day 33 of STZ administration) of the same compound?
A: The Body weight was 307 ± 8.

Q: What about the Body weight ([2]; day 34 of STZ administration) of the same compound?
A: The Body weight was 306 ± 7.

Q: And the Body weight ([2]; day 35 of STZ administration)?
A: Its Body weight is 307 ± 7.
